Consider 88 molecules from a melting point compilation (Tetko et al.; mined from patent text by program, amines drawn as free bases though some values may be those of a salt).

For orientation: melting point means the temperature, or range, at which the solid turns liquid. Molecule `Cn1cncc1C(O)(c1ccc2c(c1)c(-c1cccc(Cl)c1)cc(=O)n2C)c1nccs1` (stereo not drawn) registered a melting point of 246 °C.

For the molecule `O=S1(=O)c2cccc3cccc(c23)N1CCCN1CC=C(c2c[nH]c3ccc(O)cc23)CC1`, the melting point was 214 °C.

`CC(=O)OC1(C(C)=O)C(C)CC2C3CC(C)C4=CC(=O)C=CC4(C)C3(F)C(O)CC21C` (stereo not drawn) showed a melting point of 291 to 293 °C.

In turn, `CCCCC1NC(/C=C(\Cc2cccs2)C(=O)O)=CN1Cc1ccc(C(=O)O)c(-c2ccccc2)c1` (stereo not drawn) came in with a melting point of 158 to 161 °C.

Consider `O=C(NCC(=O)N1CCCCC1)OCc1ccccc1`, for which the melting point fell in the range of 111 to 112 °C.

On to `Cc1ccc2c(n1)C(=O)N(c1cccc(S(C)(=O)=O)c1C)C2=O`, for which the melting point lay within 237 to 239 °C.

The molecule `CC(F)(F)c1cccc(-n2cnc(CO)c2)c1` had a melting point of 104 to 108 °C.

`O=C(O)CCCCCCCn1cnc(-c2ccccc2Cl)c1-c1ccccc1Cl` displayed a melting point of 145 to 146 °C.

`CC(C)(C)OC(=O)N1CCO[C@@H](c2ccc(C(N)=O)cc2)C1` yielded a melting point of 179 °C.

In the case of `CC(=NNc1ccccc1)c1ccc(N2CCN(c3c(C)nc(N)nc3N)CC2)cc1`, the melting point lay within 239 to 241 °C.

The molecule `CSC(=NCc1cccc2ccccc12)NCC1CCN(S(=O)(=O)c2cccc3ccccc23)CC1` yielded a melting point of 111 to 113 °C.

For the molecule `COc1ccc(C=CC(=O)O)cc1-c1cc2c(cc1OCc1cccc(O)c1)C(C)(C)CCC2(C)C`, the melting point was in the range of 131 to 133 °C.

As to `O=C1[C@H]2CCC[C@H]2N(C(=O)CN2CCN(c3ccccc3)CC2)c2ccccc2N1Cc1ccccc1` (relative stereo), the melting point was in the range of 164 to 165 °C.

In turn, `O=C(O)Cc1ccc(-c2nc3ccccc3o2)cc1F` returned a melting point of 213 to 216 °C.

As for `Fc1ccc(-c2cn([C@H]3CN4CCC3CC4)nn2)cc1F`, the melting point worked out at 122 °C.

Consider `N#C[C@@H]1C[C@H](F)CN1C(=O)CCl`, for which the melting point lay within 97 to 100 °C.

Regarding `CC(=O)c1cc(-c2ccc(C(F)(F)F)cc2)oc1C`, the melting point lay within 87 to 88 °C.

The molecule `COc1ccc(N2C(=O)N(c3cccc(C#N)c3)c3nc(Nc4cccc(CCO)c4)ncc3C2C)cc1` (stereo not drawn) yielded a melting point of 195 to 200 °C.

In turn, `CCCCCCCCC(OC(C)=O)C1=CC(=O)OC1O` (stereo not drawn) returned a melting point of 54 to 55 °C.

As to `Cn1nnnc1CC(O)(c1ccc(F)cc1)c1ccc(F)cc1`, the melting point is 116 to 118 °C.

The molecule `Cc1cc(Oc2c([N+](=O)[O-])cc([N+](=O)[O-])cc2C(F)(F)F)n[nH]1` yielded a melting point of 145 to 147 °C.

`NC(=S)NN=C(CCC(=O)NC1CCCCC1)c1ccccc1`: the melting point is 89 to 92 °C.

Regarding `Cc1cc(O)cc2cc(-c3ccc(O)c(F)c3)oc12`, the melting point is 196 to 198 °C.

`COC(=O)c1ccc2c(c1)C(c1ccccn1)=CC(C)(C)O2` had a melting point of 94 to 95 °C.

The molecule `Cc1c(C)c2c(c(C)c1NCc1ccc(F)cc1)C(c1ccccc1)C(C)(C)O2` (stereo not drawn) gave a melting point of 93 to 95 °C.

As for `CCCc1c(O)ccc2c1OC(C)(CCC(=O)OC)CC2=O` (stereo not drawn), the melting point amounted to 102 °C.

As for `CC(C)(C)c1ccc(C(O)CCCN2CCC(C(O)c3nc4ccccc4n3Cc3ccc(F)cc3)CC2)cc1` (stereo not drawn), the melting point is 87 to 90 °C.

With `CCN(CC)C(=O)Nc1ccc(S(=O)(=O)Cl)cc1`, the melting point was 148 to 150 °C.

Molecule `COC[C@H](C1CC1)n1cc(Cl)nc(Cl)c1=O` gave a melting point of 110 to 111 °C.

With `COc1ccc(C2CSc3ccccc3NC2=O)cc1` (stereo not drawn), the melting point came out at 145 °C.

`CC(=O)N1c2ccc(F)cc2CC1C#N` (stereo not drawn): the melting point lay within 93 to 95 °C.

Take `COc1ccc(Cc2nc3cc(Cl)cc(CC(N)=O)c3o2)cc1OC1CCCC1`: the melting point fell in the range of 162 to 164 °C.

As to `S=C=Nc1ccc(-c2nc(-c3ccccn3)no2)cc1`, the melting point is 145 to 146 °C.

The molecule `C(#Cc1ccncc1)c1ccccc1` yielded a melting point of 51 to 53 °C.

Regarding `O=C(CCCCCNC(=O)Nc1cn2c3c(cccc13)CCC2)NO`, the melting point lay within 161 to 163 °C.

As for `CC(=O)c1ccc2c(c1)[C@@H](NC(=O)Nc1ccccc1)[C@H](O)C(C)(C)O2` (relative stereo), the melting point is 210 to 211 °C.

Molecule `CN1CC(Cc2ccccc2)OC1=O` (stereo not drawn) displayed a melting point of 80 to 82 °C.

In the case of `COc1ccc(CSc2nnc(-c3ccc4c(c3)CCO4)o2)cc1F`, the melting point fell in the range of 121 to 122 °C.

Take `O=c1nc(-c2ccc(F)cc2)c2ccccc2[nH]1`: the melting point fell in the range of 294 to 298 °C.

The molecule `Nc1nc(N)nc(N2CCOCC2)n1` registered a melting point of 248 to 250 °C.

The molecule `NC(=O)CNC(=O)c1cccc(-c2ccc(F)c3cc(Cc4cccc(C(F)(F)F)c4)sc23)c1` displayed a melting point of 157 to 158 °C.

`Nc1cccc(CCc2n[nH]c3c2c(=O)n(-c2ccccc2)c2ncccc32)c1`: the melting point was 229 to 231 °C.

The molecule `CCCC(=O)N(Cc1ccc(-c2ccccc2-c2nnn[nH]2)cc1)C(C)(C)C(=O)O` displayed a melting point of 187 to 189 °C.

For the molecule `CCCCCCCOCC1OC1CO` (stereo not drawn), the melting point lay within 50 to 52 °C.

In the case of `CNc1nn(-c2ccccc2)cc1C=O`, the melting point was in the range of 83 to 84 °C.

`COC(=O)c1cc2nc(C)[nH]c2cc1C(=O)OC` yielded a melting point of 151 to 152 °C.

On to `[N-]=[N+]=C1C(=O)Oc2cc(OCc3ccccc3)ccc2C1=O`, for which the melting point is 191 °C.

In the case of `CCc1c(C(F)(F)F)noc1NS(=O)(=O)c1cccc2ccccc12`, the melting point is 135 to 137 °C.

As for `CC(=O)OC1CSC(Sc2ccccc2S(C)(=O)=O)C(OC(C)=O)C1OC(C)=O` (stereo not drawn), the melting point is 209 °C.

For the molecule `O=C(/C=C/c1ccccc1)NC1CCN(CCC2CCOc3ccccc32)CC1` (stereo not drawn), the melting point lay within 168 to 170 °C.

Regarding `COC(=O)N(C)c1cccc(C(=O)C=CN(C)C)c1`, the melting point fell in the range of 93 to 95 °C.

In the case of `CCC(C(=O)c1ccc(N(CCN(CC)CC)S(C)(=O)=O)cc1)c1ccccc1` (stereo not drawn), the melting point is 76 to 77 °C.

With `CN1CCC2(CC1)NC(=S)N(c1ccc(C#N)c(C(F)(F)F)c1)C2=O`, the melting point was in the range of 229 to 230 °C.

The molecule `CC(C)Nc1cccnc1N1CCN(C(=O)c2ccc(C(=O)NCCO)cc2)CC1` returned a melting point of 182 to 184 °C.

The molecule `N[C@@H](C/C(=C\C1CC1)C(=O)O)C(=O)O` displayed a melting point of 204 °C.

As to `C[C@H](NC(=O)CCC(=O)NO)C(=O)N1CCC[C@H]1C(=O)O`, the melting point was 195 to 196 °C.

Consider `COc1ccc(-c2cc3cc(OC)cc(C(C)(C)C#N)c3o2)cc1`, for which the melting point lay within 146 to 148 °C.

As for `[N-]=[N+]=NCC1Cc2c(ccc3c2CCC(=O)N3)O1` (stereo not drawn), the melting point lay in the range of 157 to 158 °C.

`CC(=O)OCCN1CCC(CNC(=O)[C@@H]2CCCN2S(=O)(=O)c2ccc(Cl)c(COc3cccc4c(-n5ccnc5)cc(C)nc34)c2Cl)CC1` showed a melting point of 93 °C.

For the molecule `Cc1cccc(NC(=O)NCC(=O)N(CC(=O)N2CCC3(CCCC3)CC2)c2ccccc2)c1`, the melting point stood at 183 °C.

Molecule `CS(=O)(=O)c1ccc(C2=C(c3ccc(F)cc3)CC3(CC3)C2)cc1` gave a melting point of 140 to 142 °C.

`CC#CC(C)(C)NC(=O)C(COC)Oc1ccc2ccncc2c1` (stereo not drawn) came in with a melting point of 155 to 156 °C.

`COc1ccc(CNc2ccc(C#N)cc2)cc1F` registered a melting point of 108 °C.

In turn, `O=C(O)CCN1C(=O)c2cccc([N+](=O)[O-])c2C1=O` gave a melting point of 146 to 148 °C.

`CC(C)(C)OC(=O)NC(CF)C(F)CN1C(=O)c2ccccc2C1=O` (stereo not drawn): the melting point lay within 152 to 153 °C.

Regarding `Nc1ncnc2c1ncn2C=CC=O`, the melting point was 258 to 260 °C.

Take `O=C1CCC(N2CCOc3cc(Br)ccc32)CC1`: the melting point came to 102 °C.

`CN1CCN(c2ccccc2OCc2cc(CCC(=O)O)c3c(c2)CC(NS(=O)(=O)c2ccc(Cl)cc2)CC3)CC1` (stereo not drawn) gave a melting point of 122 °C.

The molecule `O=C(Nc1ccc(N2CCCC2)cc1)N(C[C@H]1CC[C@H](CN(C(=O)Nc2ccc(N3CCCC3)cc2)C2CCCCC2)CC1)C1CCCCC1` yielded a melting point of 149 to 152 °C.

Take `COc1ccc(N2CCOCC2)c2sc(C(=O)NC3CCN(C(=O)OC(C)(C)C)CCC3=O)nc12` (stereo not drawn): the melting point lay within 95 to 97 °C.

Turning to `CCOC(=O)C(C(=O)C(C)C)C1c2ccccc2C(=O)N1c1ccc2ccc(Cl)nc2n1` (stereo not drawn), the melting point worked out at 146 °C.

For the molecule `CCOC(=O)C1=NN(c2cccc(Cl)c2)C(c2ccccc2)CC1` (stereo not drawn), the melting point was in the range of 125 to 126 °C.

`Cc1nnc2n1-c1ccc(C#CCn3cnc4ccccc43)cc1C(c1ccccc1Cl)=NC2` had a melting point of 165 to 168 °C.

Molecule `NC1NC=CN1c1ccncc1` (stereo not drawn) registered a melting point of 190 °C.

`Clc1ccc(-c2nc(Cl)nc(Cl)c2-c2ccccc2)cc1` came in with a melting point of 129 to 131 °C.

The molecule `Nc1ccccc1C(O)C1CC1` (stereo not drawn) registered a melting point of 76 to 79 °C.

`Cc1ccc(C(=O)NCCO)cc1-n1c(C)cc(OCc2ccccc2CNC(=O)Nc2cc(C(C)(C)C)nn2-c2ccc(Cl)c(O)c2)c(Cl)c1=O` had a melting point of 196 to 197 °C.

In turn, `CS(=O)(=O)c1ccc(-c2c(-c3ccc(F)cc3)nc3sccn23)cc1` showed a melting point of 184 to 185 °C.

Regarding `Cn1nc(Cl)cc(Nc2ccncn2)c1=O`, the melting point was in the range of 233 to 235 °C.

`Nc1nc(=O)n(CCCCI)cc1F`: the melting point lay within 181 to 184 °C.

Consider `COC(=O)C1=Cc2cc(-c3ccc4c(c3)OCO4)ccc2S(=O)(=O)CC1`, for which the melting point lay within 185 to 187 °C.

On to `N#CC(Cc1ccc(-c2ccccc2)cc1)C(=O)N=NO` (stereo not drawn), for which the melting point was found to be 172 °C.

For `Cc1ccc(S(=O)(=O)N2c3ccccc3C(c3ccccc3)(c3ccccc3)C2NC(=O)Nc2ccc(F)cc2F)cc1` (stereo not drawn), the melting point is 244 to 246 °C.

Molecule `COc1ccc(N2CCN(Cc3cn4cc(Cl)ccc4n3)CC2)cc1` gave a melting point of 111 to 112 °C.

Molecule `CCCCCCCCN1CC(C(=O)OC)N(S(=O)(=O)c2ccc(NC(=O)c3ccc(Cl)cc3)cc2)CC1=O` (stereo not drawn) had a melting point of 171 to 173 °C.

Take `COc1ccc(Cl)cc1C(=O)NS(=O)(=O)c1ccc(C(=O)Cl)cc1`: the melting point is 138 to 140 °C.

`CC(=O)OC1CCC2(C)C(=CCC3C2CCC2(C)C3CC(OC(C)=O)C2OC(C)=O)C1` (stereo not drawn) yielded a melting point of 127 to 129 °C.

Consider `COc1ccccc1Oc1cc2c(=O)c(NC=O)coc2cc1NS(C)(=O)=O`, for which the melting point lay within 226 to 227 °C.
